# Data from PubChem BioAssay AID200 (DTP/NCI, 2004).
# Values joined by “and” are separate entries in the source; they are usually repeats but may differ in a detail not shown here. Equal entries are not always repeated. Toxic doses and inconclusive results are not listed.
# Test system: B6C3F1 mice, B16 melanoma ip, median survival T/C
# Test: NCI In Vivo Anticancer Drug Screen. Data for tumor model B16 Melanoma (intraperitoneal) in B6C3F1 mice
# Conditions: endpoint: median survival time, higher = longer survival
# Procedure, shortened: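 Antitumor effect was judged in mice with transplanted tumors by dividing the treated group's survival measure by that of vehicle controls.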
# [1] = dose: 12.5 mg/kg/injection, schedule: Q01DX009 (ip), vehicle: Klucel (hydroxypropylcellulose) (HPC)
# [2] = dose: 25.0 mg/kg/injection, schedule: Q01DX009 (ip), vehicle: Klucel (hydroxypropylcellulose) (HPC)
# [3] = dose: 50.0 mg/kg/injection, schedule: Q01DX009 (ip), vehicle: Klucel (hydroxypropylcellulose) (HPC)
# [4] = dose: 50.0 mg/kg/injection, schedule: Q01DX009 (ip), vehicle: saline with Tween-80
# [5] = dose: 100.0 mg/kg/injection, schedule: Q01DX009 (ip), vehicle: saline with Tween-80
# [6] = dose: 200.0 mg/kg/injection, schedule: Q01DX009 (ip), vehicle: saline with Tween-80
# [7] = dose: 6.25 mg/kg/injection, schedule: Q01DX009 (ip), vehicle: Klucel (hydroxypropylcellulose) (HPC)
smiles,measurement,setting,value
CC(=O)OC(OC(C)=O)c1ccc([N+](=O)[O-])c([N+](=O)[O-])c1,T/C,[1],102 % of control
same,T/C,[2],99 % of control
same,T/C,[3],102 % of control
Cc1cc2c(C(C)C)c(O)c(O)c(C=NCCO)c2c(O)c1-c1c(C)cc2c(C(C)C)c(O)c(O)c(C=NCCO)c2c1O,T/C,"dose: 25.0 mg/kg/injection, schedule: Q01DX009 (ip), vehicle: saline with Tween-80",109 % of control and 111 % of control and 103 % of control
same,T/C,[4],108 % of control and 109 % of control and 91 % of control
same,T/C,[5],109 % of control and 121 % of control and 101 % of control
same,T/C,[6],114 % of control and 120 % of control
same,T/C,"dose: 400.0 mg/kg/injection, schedule: Q01DX009 (ip), vehicle: saline with Tween-80",153 % of control
O=C1c2c(O)ccc(O)c2C(=O)c2c(NCCNCCO)ccc(NCCNCCO)c21,T/C,"dose: 0.12 mg/kg/injection, schedule: Q01DX009 (ip), vehicle: water",111 % of control
same,T/C,"dose: 0.12 mg/kg/injection, schedule: Q03HX024 (ip), vehicle: acid diluted with saline",287 % of control
same,T/C,"dose: 0.13 mg/kg/injection, schedule: Q01DX009 (ip), vehicle: water",184 % of control
same,T/C,"dose: 0.25 mg/kg/injection, schedule: Q01DX005 (ip), vehicle: saline",183 % of control
same,T/C,"dose: 0.25 mg/kg/injection, schedule: Q01DX005 (iv), vehicle: acid diluted with saline",102 % of control
same,T/C,"dose: 0.25 mg/kg/injection, schedule: Q01DX005 (iv), vehicle: saline",88 % of control
same,T/C,"dose: 0.25 mg/kg/injection, schedule: Q01DX009 (ip), vehicle: acid diluted with saline",172 % of control
same,T/C,"dose: 0.25 mg/kg/injection, schedule: Q01DX009 (ip), vehicle: water",212 % of control [middle of 4 runs]
same,T/C,"dose: 0.25 mg/kg/injection, schedule: Q01DX009 (sc), vehicle: acid diluted with saline",101 % of control
same,T/C,"dose: 0.25 mg/kg/injection, schedule: Q03HX008 (ip), vehicle: acid diluted with saline",206 % of control
same,T/C,"dose: 0.25 mg/kg/injection, schedule: Q03HX024 (ip), vehicle: acid diluted with saline",292 % of control
same,T/C,"dose: 0.31 mg/kg/injection, schedule: Q01DX009 (ip), vehicle: water",168 % of control
same,T/C,"dose: 0.5 mg/kg/injection, schedule: Q01DX005 (ip), vehicle: saline",206 % of control
same,T/C,"dose: 0.5 mg/kg/injection, schedule: Q01DX005 (iv), vehicle: acid diluted with saline",99 % of control
same,T/C,"dose: 0.5 mg/kg/injection, schedule: Q01DX005 (iv), vehicle: saline",93 % of control
same,T/C,"dose: 0.5 mg/kg/injection, schedule: Q01DX009 (ip), vehicle: acid diluted with saline",185 % of control
same,T/C,"dose: 0.5 mg/kg/injection, schedule: Q01DX009 (ip), vehicle: other",222 % of control
same,T/C,"dose: 0.5 mg/kg/injection, schedule: Q01DX009 (ip), vehicle: water",216 % of control and 326 % of control and 337 % of control
same,T/C,"dose: 0.5 mg/kg/injection, schedule: Q01DX009 (sc), vehicle: acid diluted with saline",121 % of control
same,T/C,"dose: 0.5 mg/kg/injection, schedule: Q03HX008 (ip), vehicle: acid diluted with saline",219 % of control
same,T/C,"dose: 0.62 mg/kg/injection, schedule: Q01DX009 (ip), vehicle: water",198 % of control and 234 % of control
same,T/C,"dose: 1.0 mg/kg/injection, schedule: Q01DX005 (ip), vehicle: saline",275 % of control
same,T/C,"dose: 1.0 mg/kg/injection, schedule: Q01DX005 (iv), vehicle: acid diluted with saline",99 % of control
same,T/C,"dose: 1.0 mg/kg/injection, schedule: Q01DX005 (iv), vehicle: saline",105 % of control
same,T/C,"dose: 1.0 mg/kg/injection, schedule: Q01DX009 (ip), vehicle: acid diluted with saline",229 % of control
same,T/C,"dose: 1.0 mg/kg/injection, schedule: Q01DX009 (ip), vehicle: other",220 % of control
same,T/C,"dose: 1.0 mg/kg/injection, schedule: Q01DX009 (ip), vehicle: water",326 % of control [middle of 4 runs]
same,T/C,"dose: 1.0 mg/kg/injection, schedule: Q01DX009 (oral), vehicle: acid diluted with saline",103 % of control
same,T/C,"dose: 1.0 mg/kg/injection, schedule: Q03HX008 (ip), vehicle: acid diluted with saline",284 % of control
same,T/C,"dose: 1.0 mg/kg/injection, schedule: Q04DX003 (ip), vehicle: acid diluted with saline",200 % of control
same,T/C,"dose: 1.25 mg/kg/injection, schedule: Q01DX009 (ip), vehicle: water",238 % of control and 252 % of control
same,T/C,"dose: 2.0 mg/kg/injection, schedule: Q01DX005 (ip), vehicle: saline",275 % of control
same,T/C,"dose: 2.0 mg/kg/injection, schedule: Q01DX005 (iv), vehicle: acid diluted with saline",121 % of control
same,T/C,"dose: 2.0 mg/kg/injection, schedule: Q01DX005 (iv), vehicle: saline",100 % of control
same,T/C,"dose: 2.0 mg/kg/injection, schedule: Q01DX009 (ip), vehicle: acid diluted with saline",151 % of control
same,T/C,"dose: 2.0 mg/kg/injection, schedule: Q01DX009 (ip), vehicle: other",105 % of control
same,T/C,"dose: 2.0 mg/kg/injection, schedule: Q01DX009 (ip), vehicle: water",162 % of control and 187 % of control
same,T/C,"dose: 2.0 mg/kg/injection, schedule: Q01DX009 (oral), vehicle: acid diluted with saline",102 % of control
same,T/C,"dose: 2.0 mg/kg/injection, schedule: Q03HX008 (ip), vehicle: acid diluted with saline",292 % of control
same,T/C,"dose: 2.0 mg/kg/injection, schedule: Q04DX003 (ip), vehicle: acid diluted with saline",224 % of control
same,T/C,"dose: 4.0 mg/kg/injection, schedule: Q01DX001 (ip), vehicle: acid diluted with saline",200 % of control and 254 % of control
same,T/C,"dose: 4.0 mg/kg/injection, schedule: Q01DX001 (iv), vehicle: acid diluted with saline",108 % of control
same,T/C,"dose: 4.0 mg/kg/injection, schedule: Q01DX009 (ip), vehicle: water",262 % of control
same,T/C,"dose: 4.0 mg/kg/injection, schedule: Q01DX009 (oral), vehicle: acid diluted with saline",96 % of control
same,T/C,"dose: 4.0 mg/kg/injection, schedule: Q04DX003 (ip), vehicle: acid diluted with saline",278 % of control
same,T/C,"dose: 8.0 mg/kg/injection, schedule: Q01DX001 (ip), vehicle: acid diluted with saline",219 % of control and 260 % of control
same,T/C,"dose: 8.0 mg/kg/injection, schedule: Q01DX001 (iv), vehicle: acid diluted with saline",104 % of control
same,T/C,"dose: 8.0 mg/kg/injection, schedule: Q04DX003 (ip), vehicle: acid diluted with saline",92 % of control
same,T/C,"dose: 9.0 mg/kg/injection, schedule: Q01DX001 (ip), vehicle: acid diluted with saline",245 % of control and 98 % of control
same,T/C,"dose: 16.0 mg/kg/injection, schedule: Q01DX001 (ip), vehicle: acid diluted with saline",220 % of control and 292 % of control
same,T/C,"dose: 18.0 mg/kg/injection, schedule: Q01DX001 (ip), vehicle: acid diluted with saline",196 % of control
same,T/C,"dose: 32.0 mg/kg/injection, schedule: Q01DX001 (ip), vehicle: acid diluted with saline",234 % of control
Cc1ccc2c(c1)Sc1ccc(N=NN(C)C)cc1N2C,T/C,"dose: 6.25 mg/kg/injection, schedule: Q01DX009 (ip), vehicle: other",100 % of control
same,T/C,"dose: 12.5 mg/kg/injection, schedule: Q01DX009 (ip), vehicle: other",114 % of control
same,T/C,"dose: 25.0 mg/kg/injection, schedule: Q01DX009 (ip), vehicle: other",114 % of control
same,T/C,"dose: 50.0 mg/kg/injection, schedule: Q01DX009 (ip), vehicle: other",115 % of control
CCCCc1ccc(-n2c(C)c(COC(=O)NC)c(COC(=O)NC)c2C)cc1,T/C,[7],170 % of control
same,T/C,[1],174 % of control
same,T/C,[2],169 % of control
O=C1NC(O)CCN1C1OC(CO)C(O)C1O (configuration not stated),T/C,"dose: 25.0 mg/kg/injection, schedule: Q01DX008 (ip), vehicle: saline",104 % of control
same,T/C,"dose: 50.0 mg/kg/injection, schedule: Q01DX008 (ip), vehicle: saline",99 % of control
same,T/C,"dose: 100.0 mg/kg/injection, schedule: Q01DX008 (ip), vehicle: saline",104 % of control
same,T/C,"dose: 200.0 mg/kg/injection, schedule: Q01DX008 (ip), vehicle: saline",108 % of control
same,T/C,"dose: 400.0 mg/kg/injection, schedule: Q01DX008 (ip), vehicle: saline",108 % of control
same,T/C,"dose: 800.0 mg/kg/injection, schedule: Q01DX008 (ip), vehicle: saline",96 % of control
NS(=O)(=O)OCCCCCCCOS(N)(=O)=O,T/C,"dose: 12.5 mg/kg/injection, schedule: Q01DX009 (ip), vehicle: saline with Tween-80",115 % of control
same,T/C,[4],171 % of control
Cc1c(N)nc(C(CC(N)=O)NCC(N)C(N)=O)nc1C(=O)NC(C(=O)NC(C)C(O)CC(=O)NC(C(=O)NC(OC1OC(C)C(N)C(O)C1O)C(O)c1nc(-c2nc(C(=O)NCCCC(N)CC(=O)NCCCNCCCCN)cs2)cs1)C(C)O)C(OC1OC(CO)C(O)C(O)C1OC1OC(CO)C(O)C(OC(N)=O)C1O)c1cnc[nH]1 (configuration not stated),T/C,"dose: 0.5 mg/kg/injection, schedule: Q01DX009 (ip), vehicle: saline",120 % of control
O=C1C(Cl)=C(Cl)C(=O)C2=C1C1c3ccccc3C2c2ccccc21,T/C,[5],94 % of control
same,T/C,[6],86 % of control
CN(C)CCCOc1nc2c(c(=O)n(C)c(=O)n2C)n1C (tested in a mixture with another compound),T/C,[7],90 % of control
same,T/C,[1],111 % of control
same,T/C,[2],102 % of control
same,T/C,[3],107 % of control
